Test results published in patent US12681018B2, “Photoactive fluorescent compounds and use thereof for labeling of proteins” (EIKON THERAPEUTICS, INC., priority 2021, dated 2026).
Read-outs that look alike come from different tables or passages of the source.

Biological target: T1, Estrogen Receptor-HaloTag (ER-Halo) fusion (Rhodococcus rhodochrous, UniProt P0A3G2, A155T/A167V/A172T/A224E/C128F/C176G/D78G/E160K/E257K/H272N/K175M/K195N/L47V/L88M/N227D/P291S/S58T/T264A/Y273L/Y87F)
T1 construct: expressed in transfected cells; host or cells: U2OS
Format: cell-based
Settings: tracks in WT U2OS cells, ratio with PA-JF549 in the numerator, 100 nM, 1 hr
Experimental: Using the methods described in Tables 4a and 4b above, labelling specificity of the compound of Examples 1-24 was measured and compared to PA-JF549. U2OS cells wild type or expressing ER-HaloTag fusion were incubated with PA-JF549 or Examples 1-24 for 1 hr. […] Labeling specificity, as measured by the fold reduction in nonspecific labeling of WT cells, was calculated by number of tracks measured in WT cells for Examples 1-24 compared to the number of tracks in WT cells for PA-JF549, expressed as the ratio with PA-JF549 in the numerator.

T1 sequence (P03372 whole entry, the tested form may be a part): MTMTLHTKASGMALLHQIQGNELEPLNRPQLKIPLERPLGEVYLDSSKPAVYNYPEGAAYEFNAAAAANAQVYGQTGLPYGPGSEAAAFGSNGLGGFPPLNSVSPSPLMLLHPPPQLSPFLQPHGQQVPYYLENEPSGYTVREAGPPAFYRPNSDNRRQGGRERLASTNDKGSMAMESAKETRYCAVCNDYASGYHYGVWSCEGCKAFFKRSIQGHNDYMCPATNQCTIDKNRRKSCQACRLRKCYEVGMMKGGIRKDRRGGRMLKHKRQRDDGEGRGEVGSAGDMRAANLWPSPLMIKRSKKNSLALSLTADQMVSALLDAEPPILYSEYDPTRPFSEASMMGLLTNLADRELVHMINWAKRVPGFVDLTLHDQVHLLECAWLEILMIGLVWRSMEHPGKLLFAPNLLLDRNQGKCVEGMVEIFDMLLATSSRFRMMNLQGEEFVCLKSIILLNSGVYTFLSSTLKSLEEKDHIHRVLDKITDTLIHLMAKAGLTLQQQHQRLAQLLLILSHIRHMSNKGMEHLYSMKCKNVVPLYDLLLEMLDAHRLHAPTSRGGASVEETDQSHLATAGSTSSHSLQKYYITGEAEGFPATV
T1 sequence (P0A3G2 other isoform, or with tags, fused parts or gaps with the stated changes): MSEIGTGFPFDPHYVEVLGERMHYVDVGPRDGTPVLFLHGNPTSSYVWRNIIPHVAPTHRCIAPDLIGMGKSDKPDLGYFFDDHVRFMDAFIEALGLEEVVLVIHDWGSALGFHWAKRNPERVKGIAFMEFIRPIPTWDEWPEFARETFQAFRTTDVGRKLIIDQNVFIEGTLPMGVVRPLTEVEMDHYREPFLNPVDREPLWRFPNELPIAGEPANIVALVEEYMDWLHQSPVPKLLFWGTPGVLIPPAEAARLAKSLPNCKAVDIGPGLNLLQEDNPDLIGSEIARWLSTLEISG

Row | Compound | Fold reduction in nonspecific labeling (Table 4b) | Fold reduction in nonspecific labeling (Table 4a)
1 | 1,1′-(6-((2-(2-((6-chlorohexyl)oxy)ethoxy)ethyl)carbamoyl)-2-diazo-3-oxo-2,3-dihydrospiro[indene-1,9′-xanthene]-3′,6′-diyl)bis(azetidine-3-carboxamide [Example 20] | >10 | –
2 | 3′,6′-di(azetidin-1-yl)-6-((2-(2-((6-chlorohexyl)oxy)ethoxy)ethyl)amino)-3H-spiro[isobenzofuran-1,9′-xanthen]-3-one [Example 21] | 5-10 | –
3 | CN(C)C(=O)C1CN(c2ccc3c(c2)Oc2cc(N4CC(C(=O)N(C)C)C4)ccc2C32C(=[N+]=[N-])C(=O)c3ccc(C(=O)NCc4ccc(COc5nc(N)nc6nc[nH]c56)cc4)cc32)C1 [Example 5] | >10 | >10
4 | COC(=O)[C@H]1CCN1c1ccc2c(c1)Oc1cc(N3CC[C@@H]3C(=O)OC)ccc1C21C(=[N+]=[N-])C(=O)c2ccc(C(=O)NCCOCCOCCCCCCCl)cc21 [Example 6] | 1-5 | 1-5
5 | [N-]=[N+]=C1C(=O)c2ccc(C(=O)NCCOCCOCCCCCCCl)cc2C12c1ccc(N3CC(O)C3)cc1Oc1cc(N3CC(O)C3)ccc12 [Example 7, N-(2-(2-((6-chlorohexyl)oxy)ethoxy)ethyl)-2-diazo-3′,6′-bis(3-hydroxyazetidin-1-yl)-3-oxo-2,3-dihydrospiro[indene-1,9′-xanthene]-6-carboxamide] | >10 | >10
6 | CN(CCOCCOCCCCCCCl)C(=O)c1ccc2c(c1)C1(C(=[N+]=[N-])C2=O)c2ccc(N3CCC3)cc2Oc2cc(N3CCC3)ccc21 [Example 8, 3′,6′-di(azetidin-1-yl)-N-(2-(2-((6-chlorohexyl)oxy)ethoxy)ethyl)-2-diazo-N-methyl-3-oxo-2,3-dihydrospiro[indene-1,9′-xanthene]-6-carboxamide] | 5-10 | 5-10
7 | [N-]=[N+]=C1C(=O)c2ccc(C(=O)NCCOCCOCCCCCCCl)cc2C12c1ccc(N3CC(C(=O)N4CCOCC4)C3)cc1Oc1cc(N3CC(C(=O)N4CCOCC4)C3)ccc12 [Example 9, N-(2-(2-((6-chlorohexyl)oxy)ethoxy)ethyl)-2-diazo-3′,6′-bis(3-(morpholine-4-carbonyl)azetidin-1-yl)-3-oxo-2,3-dihydrospiro[indene-1,9′-xanthene]-6-carboxamide] | >10 | >10
8 | [N-]=[N+]=C1C(=O)c2ccc(C(=O)NCCOCCOCCCCCCCl)cc2C12c1ccc(N3CC(C(=O)N4CCCC4)C3)cc1Oc1cc(N3CC(C(=O)N4CCCC4)C3)ccc12 [Example 10, N-(2-(2-((6-chlorohexyl)oxy)ethoxy)ethyl)-2-diazo-3-oxo-3′,6′-bis(3-(pyrrolidine-1-carbonyl)azetidin-1-yl)-2,3-dihydrospiro[indene-1,9′-xanthene]-6-carboxamide] | 5-10 | 5-10
9 | CN1CCN(C(=O)C2CN(c3ccc4c(c3)Oc3cc(N5CC(C(=O)N6CCN(C)CC6)C5)ccc3C43C(=[N+]=[N-])C(=O)c4ccc(C(=O)NCCOCCOCCCCCCCl)cc43)C2)CC1 [Example 11, N-(2-(2-((6-chlorohexyl)oxy)ethoxy)ethyl)-2-diazo-3′,6′-bis(3-(4-methylpiperazine-1-carbonyl)azetidin-1-yl)-3-oxo-2,3-dihydrospiro[indene-1,9′-xanthene]-6-carboxamide] | 1-5 | 1-5
10 | CNC(=O)C1CN(c2ccc3c(c2)Oc2cc(N4CC(C(=O)NC)C4)ccc2C32C(=[N+]=[N-])C(=O)c3ccc(C(=O)NCCOCCOCCCCCCCl)cc32)C1 [Example 12, 1,1′-(6-((2-(2-((6-chlorohexyl)oxy)ethoxy)ethyl)carbamoyl)-2-diazo-3-oxo-2,3-dihydrospiro[indene-1,9′-xanthene]-3′,6′-diyl)bis(N-methylazetidine-3-carboxamide)] | >10 | >10
11 | CN(C)C1CN(c2ccc3c(c2)Oc2cc(N4CC(N(C)C)C4)ccc2C32C(=[N+]=[N-])C(=O)c3ccc(C(=O)NCCOCCOCCCCCCCl)cc32)C1 [Example 13, N-(2-(2-((6-chlorohexyl)oxy)ethoxy)ethyl)-2-diazo-3′,6′-bis(3-(dimethylamino)azetidin-1-yl)-3-oxo-2,3-dihydrospiro[indene-1,9′-xanthene]-6-carboxamide] | 5-10 | 5-10
12 | CN(C)C(=O)[C@@H]1CCN1c1ccc2c(c1)Oc1cc(N3CC[C@H]3C(=O)N(C)C)ccc1C21C(=[N+]=[N-])C(=O)c2ccc(C(=O)NCCOCCOCCCCCCCl)cc21 [Example 14, (2S,2'S)-1,1′-(6-((2-(2-((6-chlorohexyl)oxy)ethoxy)ethyl)carbamoyl)-2-diazo-3-oxo-2,3-dihydrospiro[indene-1,9′-xanthene]-3′,6′-diyl)bis(N,N-dimethylazetidine-2-carboxamide)] | >10 | >10
13 | [N-]=[N+]=C1C(=O)c2ccc(C(=O)NCCOCCOCCCCCCCl)cc2C12c1ccc(N3CC[C@@H]3CO)cc1Oc1cc(N3CC[C@@H]3CO)ccc12 [Example 15, N-(2-(2-((6-chlorohexyl)oxy)ethoxy)ethyl)-2-diazo-3′,6′-bis((R)-2-(hydroxymethyl)azetidin-1-yl)-3-oxo-2,3-dihydrospiro[indene-1,9′-xanthene]-6-carboxamide] | 5-10 | 5-10
14 | CN(C)C(=O)[C@H]1CCN(c2ccc3c(c2)Oc2cc(N4CC[C@H](C(=O)N(C)C)C4)ccc2C32C(=[N+]=[N-])C(=O)c3ccc(C(=O)NCCOCCOCCCCCCCl)cc32)C1 [Example 16, (3S,3′S)-1,1′-(6-((2-(2-((6-chlorohexyl)oxy)ethoxy)ethyl)carbamoyl)-2-diazo-3-oxo-2,3-dihydrospiro[indene-1,9′-xanthene]-3′,6′-diyl)bis(N,N-dimethylpyrrolidine-3-carboxamide)] | 5-10 | 5-10
15 | [N-]=[N+]=C1C(=O)c2ccc(C(=O)NCCOCCOCCCCCCCl)cc2C12c1ccc(N3C4COCC3C4)cc1Oc1cc(N3C4COCC3C4)ccc12 (stereo not shown) [Example 17, 3′,6′-di(3-oxa-6-azabicyclo[3.1.1]heptan-6-yl)-N-(2-(2-((6-chlorohexyl)oxy)ethoxy)ethyl)-2-diazo-3-oxo-2,3-dihydrospiro[indene-1,9′-xanthene]-6-carboxamide] | 1-5 | 1-5
16 | CN1CC2CC(C1)N2c1ccc2c(c1)Oc1cc(N3C4CC3CN(C)C4)ccc1C21C(=[N+]=[N-])C(=O)c2ccc(C(=O)NCCOCCOCCCCCCCl)cc21 (stereo not shown) [Example 18, N-(2-(2-((6-chlorohexyl)oxy)ethoxy)ethyl)-2-diazo-3′,6′-bis(3-methyl-3,6-diazabicyclo[3.1.1]heptan-6-yl)-3-oxo-2,3-dihydrospiro[indene-1,9′-xanthene]-6-carboxamide] | >10 | >10
17 | CN(C)C(=O)C1CN(c2ccc3c(c2)[Si](C)(C)c2cc(N4CC(C(=O)N(C)C)C4)ccc2C32C(=[N+]=[N-])C(=O)c3ccc(C(=O)NCCOCCOCCCCCCCl)cc32)C1 [Example 19] | >10 | –
18 | [N-]=[N+]=C1C(=O)c2ccc(NC(=O)CCOCCOCCCCCCCl)cc2C12c1ccc(N3CCC3)cc1Oc1cc(N3CCC3)ccc12 [Example 22, 3-(2-((6-chlorohexyl)oxy)ethoxy)-N-(3′,6′-di(azetidin-1-yl)-2-diazo-3-oxo-2,3-dihydrospiro[indene-1,9′-xanthen]-6-yl)propanamide] | 5-10 | –
19 | [N-]=[N+]=C1C(=O)c2ccc(CCCCOCCOCCCCCCCl)cc2C12c1ccc(N3CCC3)cc1Oc1cc(N3CCC3)ccc12 [Example 24, 3′,6′-di(azetidin-1-yl)-6-(4-(2-((6-chlorohexyl)oxy)ethoxy)butyl)-2-diazospiro[indene-1,9′-xanthen]-3(2H)-one] | 1-5 | –
20 | (E)-3′,6′-di(azetidin-1-yl)-6-(4-(2-((6-chlorohexyl)oxy)ethoxy)but-1-en-1-yl)-2-diazospiro[indene-1,9′-xanthen]-3(2H)-one and (Z)-3′,6′-di(azetidin-1-yl)-6-(4-(2-((6-chlorohexyl)oxy)ethoxy)but-1-en-1-yl)-2-diazospiro[indene-1,9′-xanthen]-3(2H)-one [Example 23] | >10 | –
